pKi: −log10 of the molar value.
Assays:
Format in all cases: biochemical
human thrombin = human thrombin (Homo sapiens (Human), UniProt P00734); experiment: Human thrombin assay; conditions: substrate S-2238; Ki from IC50 by Cheng-Prusoff
Experimental: (§1) The inhibitory ability of the compounds to be tested on Xa factor or other enzymes, such as thrombin or trypsin, in human or rats were determined by IC50 values, wherein the IC50 value was associated with the inhibition constant Ki. The purified enzyme was used in the chromogenic determination. The initial rate of hydrolysis of the chromogenic substrate was determined by the variation of absorbance at 405 nm in the linear part on time (usually 2 to 10 minutes after the addition of the substrate) at 37° C. by using FlexStation III (USA Molecular Instruments). By plotting a curve regarding the relative velocity of the hydrolysis (compared to the control group which was free of inhibition) on the logarithm of the concentration of the compounds and linear regression calculation, the concentration of the inhibitor leading to a 50% reduction of the rate of the hydrolysis of the substrate was determined. The enzyme inhibition constant (Ki) was calculated according to Cheng-Prusoff equation: Ki=IC50/(1+[S]/Km), where [S] was the substrate concentration and Km was the meter-Mann's constant determined by the double reciprocal mapping method. The IC50 values of the compounds were obtained by GraphPad Prism software. The curve is fitted by using the “shaped dose effect (variable slope)”.
The inhibitory activity on human thrombin was determined by using a buffer (10 mM HEPES buffer, pH 7.4, 2 mM CaCl2). Appropriate wells in the Greiner 384 microtiter plate were used to determine IC50. A buffer contained 50 μL human thrombin (Sigma; T8885), the final concentration of which was 0.05 NIH unit/mL. A buffer containing 2 μL 2% (V/V) DMSO (control group which was free of inhibition) or various concentration of the compound to be tested was diluted in the buffer containing 2% (V/V) DMSO. A buffer containing 48 μL substrate S-2238 (Chromogenix; Chemical formula: H-D-Phe-Pip-Arg-pNA.2HCl) was added, the final concentration was 30 μM. In this assay, the compound to be tested and the enzyme were pre-incubated for 10 minutes, the substrate was added to give a final volume of 100 μL to start the assay.

prothrombinase = prothrombinase (Homo sapiens (Human), UniProt P00742); experiment: Prothrombin assay (prothrombinase, thrombin production); conditions: human factor Xa, human blood platelets, substrate S-2238
Experimental: (§2) The inhibitory ability of the compounds to be tested on Xa factor or other enzymes, such as thrombin or trypsin, in human or rats were determined by IC50 values, wherein the IC50 value was associated with the inhibition constant Ki. The purified enzyme was used in the chromogenic determination. […] By plotting a curve regarding the relative velocity of the hydrolysis (compared to the control group which was free of inhibition) on the logarithm of the concentration of the compounds and linear regression calculation, the concentration of the inhibitor leading to a 50% reduction of the rate of the hydrolysis of the substrate was determined. The enzyme inhibition constant (Ki) was calculated according to Cheng-Prusoff equation: Ki=IC50/(1+[S]/Km), where [S] was the substrate concentration and Km was the meter-Mann's constant determined by the double reciprocal mapping method. The IC50 values of the compounds were obtained by GraphPad Prism software. The curve is fitted by using the “shaped dose effect (variable slope)”.
The activity of the compound to be tested against prothrombinase was determined by the production of thrombin. In summary, 12.5 μL human factor Xa was incubated in 10 mM HEPES buffer and pH 7.4, 2 mM CaCl2, the final concentration was 0.5 nM, and 12.5 μL human blood platelets (1×10^7 mL^−1) was added at 37° C. After 10 mins, 25 μL prothrombin was added to initiate the reaction, the final concentration was 0.5 μM, a buffer containing 2 μL 2% (V/V) DMSO (control group which was free of inhibition) or various concentration of the compound was diluted in the buffer containing 2% (V/V) DMSO.

[1] = molecular target: rat coagulation factor Xa (Rattus norvegicus (Rat), UniProt Q63207); experiment: Rat coagulation factor Xa chromogenic assay; conditions: purified enzyme, substrate S-2222, 37° C.; Ki from IC50 by Cheng-Prusoff; read-out: rfXa Ki
Experimental: as §2
The inhibitory activity on coagulation factor Xa activity in human or rats was measured by using Tris-HCl buffer (50 mM, pH 8.3, 150 mM NaCl).

[2] = molecular target: human coagulation factor Xa (Homo sapiens (Human), UniProt P00742); experiment: Human coagulation factor Xa chromogenic assay; conditions: purified enzyme, substrate S-2222, 37° C.; Ki from IC50 by Cheng-Prusoff; read-out: hfXa Ki
Experimental: as §1
The inhibitory activity on coagulation factor Xa activity in human or rats was measured by using Tris-HCl buffer (50 mM, pH 8.3, 150 mM NaCl). […] The buffer containing 2 μL 2% (V/V) DMSO (control group which was free of inhibition) or various concentrations of the compounds to be tested were diluted in the buffer containing 2% (V/V) DMSO, and 48 μL buffer of the supporting base S-2222 (Chromogenix; chemical formula: Bz-IIe-Glu(γ-OR)-Gly-Arg-pNA.HCl R═H (50%), wherein R═CH3 (50%)) was added, the final concentration was 0.172 mM.

human trypsin = experiment: Human trypsin assay; conditions: substrate S-2222; Ki from IC50 by Cheng-Prusoff
Experimental: as §1
The inhibitory activity on human trypsin was determined by using buffer (50 mM Tris, pH 8.2, and 20 mM CaCl2). Appropriate wells in the Greiner 384 microtiter plate were used to determine IC50. A buffer containing 50 μL human trypsin (Sigma; T6424), the final concentration was 0.39 BAEE unit/mL, a buffer containing 2 μL 2% (V/V) DMSO (control group which was free of inhibition) or various concentration of the compound to be tested was diluted in the buffer containing 2% (V/V) DMSO. A buffer containing substrate S-2222 (Chromogenix), the final concentration was 30 μM. In this assay, the compound to be tested and the enzyme were pre-incubated for 10 minutes and then 48 μL substrate was added to give a final volume of 100 μL to start the assay.

rat coagulation factor Xa, sequence (Q63207 232-482): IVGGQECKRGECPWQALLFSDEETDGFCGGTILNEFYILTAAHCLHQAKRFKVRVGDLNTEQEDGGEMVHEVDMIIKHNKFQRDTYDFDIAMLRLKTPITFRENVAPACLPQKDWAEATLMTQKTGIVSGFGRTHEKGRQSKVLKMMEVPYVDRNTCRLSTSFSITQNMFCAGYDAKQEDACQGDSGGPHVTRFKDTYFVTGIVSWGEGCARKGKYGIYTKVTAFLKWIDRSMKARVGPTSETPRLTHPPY
rat coagulation factor Xa, sequence (Q63207 41-180): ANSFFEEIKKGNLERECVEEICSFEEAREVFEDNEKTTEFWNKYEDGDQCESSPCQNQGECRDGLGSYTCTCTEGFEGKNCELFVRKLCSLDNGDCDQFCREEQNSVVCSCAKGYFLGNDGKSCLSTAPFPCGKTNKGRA
prothrombinase, sequence (P00742 235-488): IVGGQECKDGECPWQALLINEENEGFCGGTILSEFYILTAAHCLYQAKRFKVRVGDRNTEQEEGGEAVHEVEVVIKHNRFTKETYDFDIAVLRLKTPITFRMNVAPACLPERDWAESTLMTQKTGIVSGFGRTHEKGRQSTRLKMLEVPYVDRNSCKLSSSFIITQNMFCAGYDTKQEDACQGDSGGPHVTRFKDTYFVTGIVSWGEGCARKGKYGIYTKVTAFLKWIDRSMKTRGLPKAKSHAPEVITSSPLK
prothrombinase, sequence (P00742 41-179): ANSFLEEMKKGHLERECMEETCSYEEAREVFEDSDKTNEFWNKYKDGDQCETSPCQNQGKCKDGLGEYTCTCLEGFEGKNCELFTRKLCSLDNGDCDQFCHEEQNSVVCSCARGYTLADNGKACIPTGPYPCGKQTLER
prothrombinase, sequence (P12259 29-737 partner): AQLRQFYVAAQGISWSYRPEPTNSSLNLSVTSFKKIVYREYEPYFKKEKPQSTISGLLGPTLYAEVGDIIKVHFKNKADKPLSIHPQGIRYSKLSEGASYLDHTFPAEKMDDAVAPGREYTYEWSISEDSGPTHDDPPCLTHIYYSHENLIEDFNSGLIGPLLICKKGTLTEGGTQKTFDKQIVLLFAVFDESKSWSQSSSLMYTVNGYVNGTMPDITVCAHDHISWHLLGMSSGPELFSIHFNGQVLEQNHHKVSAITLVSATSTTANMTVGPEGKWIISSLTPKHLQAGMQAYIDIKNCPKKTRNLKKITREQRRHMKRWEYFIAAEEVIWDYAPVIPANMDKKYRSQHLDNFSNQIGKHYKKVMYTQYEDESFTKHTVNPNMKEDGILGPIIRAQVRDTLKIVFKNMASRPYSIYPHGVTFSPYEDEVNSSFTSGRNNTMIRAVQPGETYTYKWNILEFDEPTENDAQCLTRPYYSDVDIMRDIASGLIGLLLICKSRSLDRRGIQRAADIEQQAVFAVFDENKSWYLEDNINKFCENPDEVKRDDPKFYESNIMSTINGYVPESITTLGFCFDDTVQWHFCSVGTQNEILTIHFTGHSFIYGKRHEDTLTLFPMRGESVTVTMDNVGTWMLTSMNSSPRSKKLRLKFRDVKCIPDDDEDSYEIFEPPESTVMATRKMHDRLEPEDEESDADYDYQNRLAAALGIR
prothrombinase, sequence (P12259 1574-2224 partner): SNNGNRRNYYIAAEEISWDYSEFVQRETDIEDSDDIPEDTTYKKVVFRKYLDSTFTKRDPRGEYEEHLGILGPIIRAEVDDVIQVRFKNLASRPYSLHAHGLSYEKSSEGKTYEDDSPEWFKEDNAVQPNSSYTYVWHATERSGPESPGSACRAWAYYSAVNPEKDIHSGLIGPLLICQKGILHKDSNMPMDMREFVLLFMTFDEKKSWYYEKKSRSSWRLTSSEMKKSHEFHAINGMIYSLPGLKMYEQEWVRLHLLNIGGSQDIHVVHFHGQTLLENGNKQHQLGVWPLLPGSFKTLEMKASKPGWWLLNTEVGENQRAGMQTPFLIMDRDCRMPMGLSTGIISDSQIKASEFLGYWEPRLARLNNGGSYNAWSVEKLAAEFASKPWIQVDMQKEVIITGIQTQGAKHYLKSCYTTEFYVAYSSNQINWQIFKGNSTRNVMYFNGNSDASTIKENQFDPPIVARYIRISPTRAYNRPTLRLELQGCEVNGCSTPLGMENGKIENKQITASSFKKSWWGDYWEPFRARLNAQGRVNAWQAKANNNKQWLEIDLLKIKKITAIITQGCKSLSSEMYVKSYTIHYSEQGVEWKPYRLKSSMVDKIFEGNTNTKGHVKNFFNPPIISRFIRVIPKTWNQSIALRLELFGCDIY
human coagulation factor Xa, sequence (P00742 235-488): as the sequence (P00742 235-488) above
human coagulation factor Xa, sequence (P00742 41-179): as the sequence (P00742 41-179) above

Row | SMILES | pKi (human thrombin) | pKi (prothrombinase) | pKi [1] | pKi [2] | pKi (human trypsin)
1 | COC[C@H]1CCCN1c1ccc2c(c1)OC[C@H]1[C@H](CNC(=O)c3ccc(Cl)s3)OC(=O)N21 [Compound 30] | < 6.00 | 7.79 | 7.67 | 8.01 | < 4.70
2 | O=C(NC[C@@H]1OC(=O)N2c3ccc(-n4ccccc4=O)cc3OC[C@@H]12)c1ccc(Cl)s1 [Compound 8] | < 6.00 | 9.05 | 8.50 | 8.72 | < 4.70
3 | O=C(NC[C@@H]1OC(=O)N2c3ccc(N4CCCNC4=O)cc3OC[C@@H]12)c1ccc(Cl)s1 [Compound 7] | < 6.00 | 8.36 | 7.78 | 8.38 | < 4.70
4 | O=C(NC[C@@H]1OC(=O)N2c3ccc(-n4cncn4)cc3OC[C@@H]12)c1ccc(Cl)s1 [Compound 34] | – | – | – | 6.97 | –
5 | O=C(NC[C@@H]1OC(=O)N2c3ccc(N4CCOCC4=O)cc3OC[C@@H]12)c1ccc(Cl)s1 [Compound 1, 5-chloro-N-(((3S,3aS)-1-one-7-(3-ketomorpholine)-1,3,3a,4-tetrahydrobenzo[b]oxazolo[3,4-d][1,4]oxazin-3-yl)methyl)thiophene-2-carboxamide] | < 6.00 | 9.33 | 8.54 | 9.00 | < 4.70
6 | O=C(NC[C@@H]1OC(=O)N2c3ccc(N4CCCCC4=O)cc3OC[C@@H]12)c1ccc(Cl)s1 [Compound 2] | < 6.00 | – | 8.35 | – | < 4.70
